# Paper PMC8131842, “Therapeutic Potential of Vasoactive Intestinal Peptide and its Derivative Stearyl-Norleucine-VIP in Inflammation-Induced Osteolysis” (Frontiers in Pharmacology, 2021)
# What was measured:
# rats [1] = test: Study 001–2 acute intravenous toxicity in rats; type: in vivo, rat; details: for Necrotic reaction at the site of injection: vehicle group 2: 55%
# Description: (§1) Toxicology. We performed toxicology studies for SNV that consisted of acute subcutaneous, intravenous and oral toxicity in rats, acute dermal toxicity in rabbits, skin sensitization using adjuvant and patch test in guinea pigs, and single and repeated (for 13 weeks) dose toxicity studies in rats. The latter was a 90-days repeated dose toxicity study, consisting of SNV once a day at three different doses to the penis and vagina of male and female rats, respectively. The compound was tested for the treatment of erectile dysfunction. The active dose (7 µg SNV) was chosen as the lowest dose for the study. The highest dosage group in the repeated dose toxicity study received 3,500 µg ([Gozes et al., 1994]). For study 001 (parts 1 through 3), the 1× dose consisted of 0.5 mg SNV dissolved in 7.1 ml vehicle (3.55 ml 10% Sefsol [glycerin monocaprylate] + 3.55 ml isopropanol) and 100µl/animal were administered; the 1000X dose consisted of 91 mg SNV dissolved in 1.3 ml vehicle (0.65 ml 10% Sefsol +0.65 ml isopropanol) and 100µl/animal were administered. For studies 002 through 004, the indicated doses of SNV (Table 1) were dissolved in 0.25 ml 10% Sefsol +0.25 ml 40% isopropanol (vehicle). The methodology for each of the toxicology studies is detailed in Table 1.
# [2] = test system: Primary murine macrophages/preosteoclasts; test: MTT viability assay; type: cell-based, mouse; details: 10^-6 M, 20 ng/ml M-CSF, 1, 3 and 5 days of treatment, N=5
# Description: MTT assay. For proliferation assay, macrophages were plated (4000 cells/well) into 96-well plate with standard medium supplemented with 20 ng of M-CSF. Cells were treated as indicated with either TiP, SNV, VIP (10^−6 M) or vehicle at first day of incubation. Cells viability was determined using dimethylthiazol-diphenyl-tetrazolium-bromide (MTT) after 1, 3 or 5 days. MTT was added to a final concentration of 5 mg/ml and incubated for 4 h at 37°C. After complete solubilization of the die in DMSO, plates were read at 570 nm in a colorimetric plate reader.
# FIGURE 4 VIP and SNV alleviate the osteoclastogenic effect of TiP-induced inflammation. (A) Primary BMDM were exposed to TiP and RNA was collected after 24 h. mRNA expression are presented as Mean±SD fold change versus Control. * p<0.05 vs. Control. (B-D) Primary murine preosteoclasts were cultured in 20 ng/ml M-CSF and 50 ng/ml RANKL for 48 h. Conditioned medium from macrophages (Control) and macrophages exposed to Ti particles (Ti, as in A) was then added together with 10^-6M of VIP or SNV (or saline) for 48 h before TRAP staining. Data are Mean±SD for osteoclast % surface area (B) and number per well (C). (D) Representative images all acquired at a 4x original magnification. The scale bar for all images is in the upper left panel. n=8, #p<0.05 vs. Control; *p<0.05 vs. Ti, ANOVA. […]
# rats [3] = test: Study 004–1 repeated dose toxicity in rats: a 13-weeks study; type: in vivo, rat
# Description: as §1
# The study named 004-1, was the most protracted and detailed toxicology study. We carried it out in rats as a repeated dose toxicity study on target external organs, the penis and the vagina. The structure of the study included a detailed pathological evaluation of all body organs.
# [4] = Rat model of transepithelial penetrability (vaginal delivery of 125I-SNV, organ radioactivity); type: in vivo; details: 125I-labelled SNV
# Excerpt: Rat model of transepithelial penetrability. Because of the high hydrophobicity of SNV, we employed an iodination labeling protocol based on the Chloramine T method ([Markwell, 1982]) using 1 mCi Na^125I with a few modifications that included 1) the dissolution of SNV in dimethylformamide (DMF), 2) replacement of the phosphate buffer with 0.2 M HEPES (pH = 7.6), a more compatible buffer, and 3) reaction termination by the addition of sodium metabisulfite and KI. The pharmacokinetic profile of ^125I-SNV absorption and distribution was evaluated following vaginal delivery of the compound to rats. Wistar rats at the estrus phase received 50 µl (7.0 µCi/rat, 15 million CPM, 100 Ci/mM specific activity) of ^125I-SNV dissolved in 5% Sefsol, applied directly in the vagina, using a P100 micro pipettor. At the indicated time points, we anesthetized the rats with chloral hydrate and collected blood before cervical dislocation. We then harvested the uterus, liver, lungs, heart, intestine, kidneys and vagina (duplicate samples were taken from each organ). Organs were weighed and radioactivity levels were measured using a gamma counter. Each point on the chart represents at least two rats.
# 7.0 microCi/rat (15 million CPM, 100 Ci/mmole specific activity) of radioactive SNV was delivered in the vagina of rats at T0. Each point on the chart represents at least two rats. Levels of radioactivity were monitored over 250 min to assess the remaining amount of SNV in the vagina (A) versus its distribution in the indicated organs (B) as a measure of its penetrability through the vaginal epithelium. Data are Mean ± SD.
# [5] = test system: Primary murine preosteoclasts; test: Osteoclastogenesis assay with conditioned medium from TiP-exposed macrophages (TRAP staining); type: cell-based, mouse; details: 10^-6 M, conditioned medium of TiP-exposed macrophages
# Description: Osteoclastogenesis assay. Preosteoclasts, prepared like the BMDMs, were plated in 96-well plates (7,000 cells per well, for TRAP staining, see below) or in 6-well plates (200,000 cells per well, for RNA) in standard medium supplemented with 20 ng/ml M-CSF and 50 ng/ml RANKL (R&D Systems, Minneapolis, MN, United States). After 48 h, the medium was replaced by the conditioned medium of BMDM, supplemented with RANKL and M-CSF. Where indicated, 10^−6 M SNV or VIP were added. […], cells were stained using a TRAP kit (Sigma-Aldrich, St. Louis, MO, United States), and multinucleated (>3 nuclei) TRAP-positive cells were defined as osteoclasts. Images were acquired at an original magnification of ×4 (Evos FLC, Life Technologies, MS, United States). The number of osteoclasts and the total osteoclast area were measured using ImageJ software (National Institutes of Health, Bethesda, MD, United States).
# FIGURE 4 VIP and SNV alleviate the osteoclastogenic effect of TiP-induced inflammation. (A) Primary BMDM were exposed to TiP and RNA was collected after 24 h. mRNA expression are presented as Mean±SD fold change versus Control. * p<0.05 vs. Control. (B-D) Primary murine preosteoclasts were cultured in 20 ng/ml M-CSF and 50 ng/ml RANKL for 48 h. Conditioned medium from macrophages (Control) and macrophages exposed to Ti particles (Ti, as in A) was then added together with 10^-6M of VIP or SNV (or saline) for 48 h before TRAP staining. Data are Mean±SD for osteoclast % surface area (B) and number per well (C). (D) Representative images all acquired at a 4x original magnification. The scale bar for all images is in the upper left panel. n=8, #p<0.05 vs. Control; *p<0.05 vs. Ti, ANOVA. (E) Primary murine macrophages/preosteoclasts were cultured in 20 ng/ml M-CSF and Ti particles, 10^-6M of VIP or SNV, or saline only. MTT viability assay was performed after 1, 3 and 5 days and presented as optical density values. N=5, no statistical differences were found between the treatment groups. Data are Mean±SD in arbitrary OD units.
# [6] = daily topical for 13 weeks, all doses
# [7] = 7.0 µCi/rat in 5% Sefsol, vaginal delivery, Wistar rats at estrus, monitored over 250 min, gamma counter, at least two rats per point
# [8] = 20 ng/ml M-CSF + 50 ng/ml RANKL, TRAP staining, n=8, vs Ti
substance,measurement,setting,value
"Stearyl–HSDAVFTDNYTRLRKQ-Nle-AVKKYLNSILN-NH2 [SNV, Stearyl-norleucine-VIP, lipophilic VIP derivative with N-terminal stearic acid and norleucine in place of methionine at position 17]",Mortality,"rats [1]; intravenous, 7 µg/rat (1×, group 3)",7 rats (3 males and 4 females) out of 12 died within 3 h after administration in group 4 (SNV -1000X). One rat died in group 2 within 5–24 h after administration. No mortality occurred in groups 1 and 3
same,Necrotic reaction at the site of injection,"rats [1]; intravenous, 7 µg/rat (group 3)",58%
same,Necrotic reaction at the site of injection,"rats [1]; intravenous, 7 mg/rat (group 4)",100%
same,Reactions: body weight,"rats [1]; intravenous, all groups, initial weight loss recovered during the study","Necrotic reaction was observed at the site of injection in 55% group 2, 58% group 3 and 100% group 4. Most surviving rats displayed normal body weight, and some weight loss observed initially was recovered during the study"
same,"Acute intravenous median lethal dose, male rats","rats [1]; tail vein, S.D. rats, estimated",7 mg/male rat
same,"Viability of the cells (MTT, optical density)",[2],neither VIP nor SNV affected the viability
same,"Clinical signs (penile edema, erythema and staining): relation to dose","rats [3]; daily topical for 13 weeks, 7 µg, 0.7 mg and 3.5 mg/rat",not dose-related
same,Mortality,"rats [3]; daily topical for 13 weeks, 7 µg/rat (low dose)",None. Only one death took place in a male from the low dose group due to massive abdominal hemorrhage caused by a nephroblastoma
same,Mortality,"rats [3]; daily topical for 13 weeks, 0.7 mg/rat",None. Only one death took place in a male from the low dose group due to massive abdominal hemorrhage caused by a nephroblastoma
same,Mortality,"rats [3]; daily topical for 13 weeks, 3.5 mg/rat",None. Only one death took place in a male from the low dose group due to massive abdominal hemorrhage caused by a nephroblastoma
same,Pathological evaluation of all body organs (macroscopic and microscopic changes),"rats [3]; daily topical for 13 weeks, all dosages",No drug-related macroscopic or microscopic changes
same,Hematology and clinical chemistry parameters,rats [3]; [6],No dose related or sex related biologically meaningful treatment effects
same,"Serious adverse effects, conclusion",rats [3]; [6],did not cause any serious adverse effects at any of the doses tested
same,Treatment-related adverse effects,"rats [3]; daily topical on the sex organs for 13 weeks, 7 µg, 0.7 mg and 3.5 mg/rat, SPF S.D. rats, 10 males + 10 females per group",No related adverse effects were detected throughout the study
same,"Levels of SNV in the blood, heart, lungs, liver, gut, uterus and kidneys (radioactivity)",[4]; [7],steadily increased
same,Local levels of SNV in the vagina (radioactivity),[4]; [7],decline over time
same,Penetrability through the vaginal epithelium,"[4]; vaginal delivery in rats, over 250 min",high penetrability
same,Inhibitory effect on osteoclasts compared with VIP,[5],stronger inhibitory effect on osteoclasts than VIP
same,Osteoclast area,[5]; [8],attenuated
same,Osteoclast number,[5]; [8],attenuated
